Laboratory results from patent US20240226155A1, “Methods and Products for Reducing HIV Reservoirs” (The Regents of the University of California, priority 2023, published 2024).
“Also recorded” adds a separate entry of the source.

Columns and labels:
HIV = details: cited from earlier work
barcoded HIV NL-HABC = test: Kick and kill: SUW133 and NK cells in NL-HABC-infected mice on ART, then ART interruption; assay type: in vivo, TKO-BLT mice
Protocol: To determine whether combining a robust LRA with NK cells would effectively diminish the viral reservoir, as NK cells might eliminate cells induced to express virus due to the LRA activity, the following was performed. BLT mice were infected with NL-HABC, followed by ART to halt productive infection (FIG. 21, FIG. 64). Once mice were suppressed on ART, a subset of mice received a single intraperitoneal injection of 2 μg of SUW133 per mouse to reverse latency, followed by an intravenous injection of 5×10^6 allogeneic human NK cells eight hours later. Reactivation and killing of activated infected cells was allowed to occur while the mice were maintained on ART. ART was then discontinued, and mice were concurrently administered one more intravenous injection of 5×10^6 NK cells. A subset of control mice received SUW133, but no NK cell injections. All remaining control mice received DMSO as a vehicle control instead of SUW133. A subset of the mice receiving DMSO also received NK cell injections. Plasma viral loads were monitored after ART interruption for 12.1 weeks (FIG. 22). In these experiments, TKO-BLT mice, which can be robustly infected with HIV and are less susceptible to GVHD compared to NSG-BLT, were used and allowed monitoring the mice after ART interruption for a longer interval.
RNA was extracted from the barcoded virus supernatant using QIAamp Viral RNA Mini Kit (Qiagen) and from cells using RNeasy MiniKit (Qiagen). cDNA was generated using SuperScript IV First-Strand Synthesis Kit (Invitrogen). The same amount of input RNA that was used for viral load measurement was also used for cDNA synthesis for barcode analysis. The barcode region was amplified by hemi-nested PCR using Phusion High-Fidelity DNA Polymerase (ThermoFisher Scientific). Each RNA molecule was tagged with a Primer ID using methods in the art. Primer ID removal and cDNA purification was performed using an Purelink Quick PCR Purification Kit (Invitrogen) and methods in the art. […] Deep sequencing was performed with Illumina HiSeq3000 PE150. Sequencing depth was 10-fold higher than viral genome copies. Raw sequencing reads were de-multiplexed using the six-nucleotide ID. Sequencing error within the barcode region was corrected by filtering out low quality reads (quality score<30) and un-matched base-pairs between forward and reverse reads. PrimerIDs were used to correct sequencing errors. The frequency of Primer ID reads followed a bi-modal distribution (FIG. 53). The Primer IDs were filtered using the frequency cutoff between the Poisson distribution of errors and normal distribution of real Primer IDs. For each Primer ID, the most frequently observed barcode was called. Similar barcodes were then grouped into clusters. […]

For `C=C1C[C@H]2C[C@]3(O)O[C@H](C[C@@H](O)CC(=O)O[C@@H](CO)C[C@@H]4C/C(=C\C(=O)OC)[C@H](OC(=O)CCCCCCC)[C@@](O)(O4)C(C)(C)/C=C/[C@@H](C1)O2)C[C@H](OC(C)=O)C3(C)C` [SUW133], the “replication-competent virus from splenocytes in ex vivo cultures” value (HIV; SUW133-treated mice, prior studies) is given as “generated replication-competent virus”, the “delay of rebound viremia after ART interruption” value (HIV; SUW133 alone, prior studies) is given as “up to two to four weeks” and the “time of maximal CD69 expression on CD4+ T cells in vivo” value (HIV; post-SUW133 injection, previous report) is given as “approximately one to two days”. For the same compound, the “time CD69 can be detected on CD4+ T cells in vivo” value (HIV; post-injection, previous report) was “up to nine days”, the “CD4+ T cell activation and latency reversal in vivo” value (HIV; single administration) was “activated CD4^+ T cells and reversed latency in vivo” and the “delay to rebound after ART interruption (Kaplan-Meier, log-rank)” value (barcoded HIV NL-HABC; combination vs other groups (P=0.012 vs DMSO, 0.0037 vs SUW133, 0.09 vs NK), single agents vs DMSO (P=0.59, 0.47)) was “did not demonstrate a significant delay in rebound”. For the same compound, the “mean unique barcodes per mouse” value (barcoded HIV NL-HABC; deep sequencing of rebounding viral RNA, DMSO alone 4.7) was 4.1, the “CD69 expression on peripheral CD4+ T cells in the blood” value (barcoded HIV NL-HABC; five days after administration of SUW133) was “significant increase; also recorded: significantly elevated” and the “rebound viremia during the lengthened interval of ART interruption” value (barcoded HIV NL-HABC; monitored about 12 weeks) was “eventually rebound; also recorded: rebounded”.
